In PMC11714206, “Massively Parallel Screening of Toll/Interleukin‐1 Receptor (TIR)‐Derived Peptides Reveals Multiple Toll‐Like Receptors (TLRs)‐Targeting Immunomodulatory Peptides” (Advanced Science, 2024):
“And” between values parts separate entries of the source, which are not always exact repeats. Equal values may be shown once. Values belong to the sequence of their own block, whether it stands above or below them.

Biological target: T1, MyD88^TIR (Homo sapiens, UniProt Q99836)
T1 construct: MyD88 (residues 148–296); 6xHis; made in house; host or cells: E. coli BL21 (DE3)
Assay: T‐Surf phage library (P8 and P3) selection against MyD88^TIR, four rounds, NGS read counts
Format: binding
Settings: for P3_MyD88 Rank (after) / P3_MyD88 Rank (before): P3 library; for P8_MyD88 Rank (after) / P8_MyD88 Rank (before): P8 library; for Population: 4th round of selection against MyD88 TIR, share of NGS reads
Description: T‐Surf libraries were screened against the immobilized TIR domains of two major human TLR adaptor proteins, MAL^TIR and MyD88^TIR, allowing cross‐species selection of TIR‐binding motifs with 190 946 TIR‐derived peptides in a single binding assay (Scheme 1). Enriched phage pools from the fourth round of selection were analyzed using NGS after barcoding the peptide‐coding regions of the phage pools.
Phage display screening was performed by coating two wells of a 96‐well plate (Maxisorp, Thermo Fisher Scientific) with 100 µL of 5 µg mL^−1 TIR domains overnight; then, the coated wells were blocked with 200 µL of blocking buffer (0.2% BSA in PBS) and set aside for 1 h at 4 °C with gentle shaking. Next, 100 µL of the phage library was added to the wells and incubated for 1 h at room temperature (RT; 20 – 22 °C) with gentle shaking. The plate was washed four times with PBS containing 0.5% Tween‐20; the bound phages were eluted by adding 100 µL of 100 mM HCl to each well. The elute was neutralized with 10 µL of 1.0 M Tris‐HCl (pH 11.0). E. coli TG1 cells were grown to the log phase (A600 = ≈0.6), and 1 mL of the culture was incubated with 100 µL of the eluted phages for 30 min at 37 °C, with shaking at 200 rpm. Next, 1 µL of M13KO7 helper phages was added, followed by incubation for 45 min at 37 °C, with shaking. Subsequently, the cells were transferred to 25 mL of 2× yeast extract tryptone/carbenicillin/kanamycin medium and incubated overnight at 37 °C with shaking at 200 rpm. The amplified phages were precipitated with 20% PEG‐8000/2.5 M NaCl to be used for the next round of selection.
The naïve T‐Surf libraries in P8 and P3 and the enriched phage pools after four rounds were barcoded for NGS as previously described.^[ [59] ^] Briefly, 5 µL of the phage pool was used as a template for 20 cycles of a 50 µL PCR reaction using […] each of forward and reverse barcoded primers and PrimeSTAR Max DNA Polymerase. The PCR products were purified using Expin Gel SV (GeneAll). The NGS samples were quantified using qPCR, following the qPCR Quantification Protocol Guide (KAPA Library Quantification kits for Illumina Sequencing Platform), and qualified using the TapeStation High Sensitivity D1000 ScreenTape (Agilent Technologies). The indexed libraries were further sequenced by Macrogen (Seoul, Republic of Korea) using the NovaSeq platform (Illumina) with 100 bp paired‐end reads. The reads were demultiplexed by barcodes and filtered for an average Phred quality score of at least 30, followed by trimming the flanking consensus sequences using Cutadapt (version 2.3). Peptide sequence populations were analyzed according to the read counts.

[1] = P8_MyD88: rank by NGS read count after grouping
[2] = P8_MyD88: rank by NGS read count before grouping
[3] = selection against MyD88 TIR, rank by count after grouping
[4] = selection against MyD88 TIR, rank by count before grouping
[5] = P8_MyD88: rank by count after grouping
[6] = P8_MyD88: rank by count before grouping
[7] = selection against MyD88, rank by count after grouping
[8] = selection against MyD88, rank by count before grouping
[9] = P3_MyD88 pool: P3 T-Surf phage library
[10] = 4R selection against MyD88, rank after grouping
[11] = 4R selection against MyD88, rank before grouping
[12] = P3_MyD88: rank by count after grouping
[13] = P3_MyD88: rank by count before grouping

T1 sequence (Q99836 148-296): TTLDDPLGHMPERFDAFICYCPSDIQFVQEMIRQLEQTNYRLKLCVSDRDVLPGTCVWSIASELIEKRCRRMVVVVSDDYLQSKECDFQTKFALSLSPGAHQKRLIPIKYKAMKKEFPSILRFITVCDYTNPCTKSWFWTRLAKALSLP

P8_MyD88 Rank (after) [7]: 708
P8_MyD88 Rank (before) [8]: 2455
Sequence: DWVWDYMLTNLEGPAG

P8_MyD88 Rank (after) [3]: 280
P8_MyD88 Rank (before) [4]: 3302
Sequence: LGYHWRDWEYFVGLED

P8_MyD88 Rank (after) [3]: 231
P8_MyD88 Rank (before) [4]: 409
Sequence: LGYHWIDWSILWALK

Rank (after) [5]: 437
Rank (before) [6]: 3162
Sequence: EWVWDYLLPNLESPAG

Rank (after) [5]: 163
Rank (before) [6]: 745
Sequence: DPQELEWFYERLVSLF

Rank (after) [1]: 991
Rank (before) [2]: 3499
Sequence: PQEREWFYERLVSLIL

P8_MyD88 Rank (after) [3]: 267
P8_MyD88 Rank (before) [4]: 2763
Sequence: DPQDLDWFYERLFTQM

P3_MyD88 Rank (after) [3]: 203
P3_MyD88 Rank (before) [4]: 2526
Sequence: LKVENWRQALEQAGKL

P3_MyD88 Rank (after) [7]: 705
P3_MyD88 Rank (before) [8]: 1627
Sequence: YTALNNMGFHTFRGND

P3_MyD88 Rank (after) [3]: 218
P3_MyD88 Rank (before) [4]: 1121
Sequence: PEKDNGGENALSITL

Rank (after) [1]: 1013
Rank (before) [2]: 2020
Sequence: YLLRSLFQTLFPRRTE

P3_MyD88 Rank (after) (selection against MyD88, rank after grouping): 533
P3_MyD88 Rank (before) (selection against MyD88, rank before grouping): 2319
Sequence: LVANEISKKIKIFAII

Rank (after) [1]: 917
Rank (before) [2]: 3182
Sequence: ELDFSHFWLFDGQAGGAA

P3_MyD88 Rank (after) [7]: 715
P3_MyD88 Rank (before) [8]: 3278
Sequence: SRFREGLWRLLKLSKK

P8_MyD88 Rank (after) [10]: 588
P8_MyD88 Rank (before) [11]: 3585
Sequence: QLIQQWIELHLHQLH

Rank (after) [12]: 442
Rank (before) [13]: 2126
Sequence: EWLREQLRSARKERLP

Population [9]: 0.00291%
Sequence: LVAHEISKKMKIFATF

P3_MyD88 Rank (after) [10]: 661
P3_MyD88 Rank (before) [11]: 2060
Sequence: DHHMDLPRDTAIKPEILG

P3_MyD88 Rank (after) [3]: 192
P3_MyD88 Rank (before) [4]: 3063
Sequence: SELREVADGSVSPLEM

Rank (after) [5]: 411
Rank (before) [6]: 2801
Sequence: DPQDLDWFYEHLFSQM

P3_MyD88 Rank (after) [7]: 738
P3_MyD88 Rank (before) [8]: 2882
Sequence: QQVVRYRLEIVRVTKL

Second part, the sequence before the results:

Sequence: YPQDLEWLYERLVSPV
Rank (after) [1]: 945
Rank (before) [2]: 2099

Sequence: YLKVESWRQALEKAGKL
P3_MyD88 Rank (after) [3]: 268
P3_MyD88 Rank (before) [4]: 864

Sequence: ELDFSHFWLFDAGGDAAI
Rank (after) [1]: 956
Rank (before) [2]: 3183

Sequence: DPQDLEWFYERLVILF
Rank (after) [5]: 446
Rank (before) [6]: 2849

Sequence: DPQDLEWFYERLVSLIP
Rank (after) [5]: 453
Rank (before) [6]: 2884

Sequence: YTALTNSRLHNFRDND
P3_MyD88 Rank (after) [7]: 696
P3_MyD88 Rank (before) [8]: 1707

Sequence: DSLFWDRLLYSL
Population (P8_MyD88 pool: P8 T-Surf phage library): 0.00732%

Sequence: YYLEPIYLRKQSGDFG
P3_MyD88 Rank (after) [3]: 283
P3_MyD88 Rank (before) [4]: 1475

Sequence: YYLDPSHLRKQTGSLAKAFA
P3_MyD88 Rank (after) [3]: 224
P3_MyD88 Rank (before) [4]: 1463

Sequence: LVAQEISKKMKIFATI
Population [9]: 0.00495% and 0.00466%

Sequence: FDASTWFFQEWARFL
Rank (after) [1]: 930
Rank (before) [2]: 1313

Sequence: YAFTGHLHRYIEQRSG
P3_MyD88 Rank (after) [10]: 610
P3_MyD88 Rank (before) [11]: 1533

Sequence: DRSIWDRLLYSLHVTE
Rank (after) [1]: 996
Rank (before) [2]: 3141

Sequence: DPQDLHGIYERLVILF
P8_MyD88 Rank (after) [10]: 666
P8_MyD88 Rank (before) [11]: 2903

Sequence: YYDSRWALDELLKILDAKETM
Rank (after) [5]: 470
Rank (before) [6]: 1677

Sequence: PSDVRKKTGSLAKAFA
P3_MyD88 Rank (after) [3]: 285
P3_MyD88 Rank (before) [4]: 2735

Sequence: NQWRNALTAAAYMSCR
Rank (after) [12]: 463
Rank (before) [13]: 3492

Sequence: DPQDLDWFYERQVRLF
Rank (after) [1]: 915
Rank (before) [2]: 2794

Sequence: AYSPWALDELVKIIEA
P8_MyD88 Rank (after) [3]: 214
P8_MyD88 Rank (before) [4]: 303

Sequence: DPQGLVCYYERLVSLL
P8_MyD88 Rank (after) [10]: 595
P8_MyD88 Rank (before) [11]: 2662
